Assay results from patent US8906829B2, “Synergistic algicidal compositions including hydrazone derivatives and copper” (Dow AgroSciences LLC, priority 2010, dated 2014).

Tests used:
[1] = system: Synechocystis sp. strain 6803; assay: Effect of copper on activity of hydrazones: in vitro growth inhibition of Synechocystis in BG-11 Cu minus / Cu plus medium (Example 11); assay type: cell-based; conditions: for inhibition of growth at 0.05 µg/mL / inhibition of growth at 0.0125 µg/mL / inhibition of growth at 0.00625 µg/mL: Synechocystis, BG-11 Cu minus medium, read-out: % Inhn. Minus Copper Observed; for inhibition of growth at 0.05 µg/mL / % Inhn. Plus Copper Observed / inhibition of growth at 0.0125 µg/mL / inhibition of growth at 0.00625 µg/mL: 72 h; for % Inhn. Plus Copper Observed: BG-11 Cu plus medium
Procedure, shortened: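 Synechocystis sp. 6803 in Chelex-treated, copper-free BG-11 (pH 7.1) or the same medium plus 0.2 μM CuCl2, inoculated from a 4×10^5/mL suspension. Growth after 72 h at 27 °C was measured by light scattering and expressed as % inhibition versus compound-free wells. Copper-plus results were compared with Colby-predicted values.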

C. reinhardtii = assay: Growth inhibition of C. reinhardtii by hydrazones and isolated metal-hydrazone complexes, TAP Cu minus medium (Example 12); assay type: cell-based, Chlamydomonas reinhardtii; conditions: for inhibition of growth at 1 µg/mL: Chlamydomonas reinhardtii, parent hydrazone 1 μg/mL, read-out: Hydrazone % Inhn.; for Complex % Inhn.: isolated metal complex 1 μg/mL
Method: In vitro toxicity assays against C. reinhardtii CC-1928 (wild type mt+137c green in dark subclone) obtained from the Chlamydomonas Resource Center at Duke University were conducted using TAP liquid growth medium described by Gorman and Levine Proc. Natl. Acad. Sci. USA 1965, 54, 1665-1669 except that CuSO4.5H2O, normally included as a component of Hutner's trace element stock solution (Hutner et al. Proc. Am. Philos. Soc. 1950, 94, 152-170), was omitted. The TAP medium lacking Cu (TAP Cu minus) was prepared by adding 400 mg NH4Cl, 10 mL of 100× Tris-Acetate (242 g Tris-base and 100 mL glacial acetic acid in 1000 mL milli Q water), and 8.3 mL of 120.5× phosphate buffer (14.34 g K2HPO4 and 7.26 g KH2PO4 in 1000 mL milli Q water) to milli Q water to make a total volume of 1 liter. The medium was treated with 0.5 g Chelex 100 resin (Bio-Rad Analytical grade, 50-100 mesh, sodium form, cat#142-2822) by stirring at room temperature for 1 hour. 900 mL were decanted and 45.9 mg of CaCl2.2H2O, 90 mg of MgSO4.7H2O and 0.9 mL Hutner's trace elements lacking CuSO4.5H2O were added and the solution was filter-sterilized. Medium containing copper (TAP Cu plus) was prepared by adding CuCl2.2H2O to the TAP Cu minus medium at 20 μM. Test compounds were dissolved in dimethylsulfoxide (DMSO) at 2 mg/mL then dilutions in TAP Cu minus and TAP Cu plus media were prepared in sterilized microcentrifuge tubes at 2 μg/mL. 100 μL aliquots of diluted compound were dispensed into flat-bottomed 96-well microtiter plates. C. reinhardtii was maintained under 12 h of light on TAP agar plates at 18° C. A loopful of cells was added to 50 mL of TAP Cu minus medium and the culture incubated with shaking at 200 rpm at 27° C. for 24 h. The culture (10 to 20 mL aliquot) was centrifuged in a bench centrifuge at 2000 rpm for 2 min. The resulting cell pellet was resuspended in 5 mL sterile milli Q water (which had been treated with Chelex 100 resin using 0.5 g resin per liter of water by stirring at room temperature for 1 h), and recentrifuged. The cells were resuspended in TAP Cu minus medium, and the suspension adjusted to 2×10^5 spores per mL. Microtiter plates containing compounds as described above were inoculated with 100 μL of this cell suspension and the plates incubated at 27° C. for 48 h before assessing algal growth by measuring light scattering in a NepheloStar plate-reader. Growth inhibition was determined by comparing growth in the presence of test compound with growth in control wells lacking test compound. Hydrazones and their isolated metal complexes were compared with respect to their in vitro activity toward C. reinhardtii and the cyanobacterium (blue-green alga) Synechocystis sp. strain 6803. Metal complexes of hydrazones were prepared by precipitation from ethanol with various metal salts at 1:1, 2:1 or 3:1 molar ratios, as described in general by Ainscough, Brodie, Dobbs, Ranford, and Waters (Inorganica Chimica Acta 1998, 267, 27-38, which is expressly incorporated by reference herein). In vitro assays against C. reinhardtii were conducted as described in Example 10 using TAP Cu minus medium. Growth inhibition was determined by comparing growth in the presence of test compound with growth in control wells lacking test compound. Results for growth inhibition of C. reinhardtii by hydrazones and corresponding isolated metal complexes (each at 1 μg/mL) are shown in Table 6.

Row | Compound | inhibition of growth at 0.05 µg/mL ([1]; Test Concn. 0.05 μg/mL) [%] | % Inhn. Plus Copper Observed ([1]; Test Concn. 0.05 μg/mL) [%] | inhibition of growth at 1 µg/mL (C. reinhardtii) [%] | other results
1 | O=C(N/N=C/c1cc(Cl)cc(Cl)c1O)c1ccccc1 [Compound 1] | 29 | 91 | 16 | –
2 | C/C(=N\NC(=O)c1ccccc1)c1cc(Cl)cc(Cl)c1O [Compound 6] | 19 | 99 | 13 | –
3 | O=C(N/N=C/c1cc(Cl)cc(Cl)c1O)c1ccccc1O [Compound 7] | 22 | 96 | 29 | –
4 | C/C(=N\NC(=O)c1ccc(Cl)cc1)c1cc(Cl)cc(Cl)c1O [Compound 12] | – | – | 4 | inhibition of growth at 0.0125 µg/mL ([1]; Test Concn. 0.0125 μg/mL): 21%; % Inhn. Plus Copper Observed ([1]; Test Concn. 0.0125 μg/mL): 82%
5 | O=C(N/N=C/c1cc(Cl)cc(Br)c1O)c1ccccc1 [Compound 14] | 50 | 97 | 6 | –
6 | O=C(N/N=C/c1cc(Cl)cc(Br)c1O)c1ccc(Cl)cc1 [Compound 15] | – | – | 11 | inhibition of growth at 0.00625 µg/mL ([1]; Test Concn. 0.00625 μg/mL): 15%; % Inhn. Plus Copper Observed ([1]; Test Concn. 0.00625 μg/mL): 74%
7 | O=C(N/N=C/c1cc(Cl)cc(Br)c1O)c1ccccc1O [Compound 18] | – | – | 13 | inhibition of growth at 0.0125 µg/mL ([1]; Test Concn. 0.0125 μg/mL): 47%; % Inhn. Plus Copper Observed ([1]; Test Concn. 0.0125 μg/mL): 86%
8 | O=C(N/N=C/c1ccc(Cl)c(Cl)c1O)c1ccccc1 [Compound 21] | – | – | 6 | inhibition of growth at 0.0125 µg/mL ([1]; Test Concn. 0.0125 μg/mL): 39%; % Inhn. Plus Copper Observed ([1]; Test Concn. 0.0125 μg/mL): 96%
9 | C/C(=N\NC(=O)c1cccc(C)c1)c1cc(Cl)cc(Cl)c1O [Compound 25, 3-methyl-benzoic acid [1-(3,5-dichloro-2-hydroxyphenyl)-ethylidene]-hydrazide] | 18 | 92 | 33 | –
10 | C/C(=N\NC(=O)c1ccc(C)cc1)c1cc(Cl)cc(Cl)c1O [Compound 26] | 54 | 95 | – | –
11 | O=C(N/N=C/c1cc(Cl)cc(C(F)(F)F)c1O)c1ccccc1 [Compound 27] | 31 | 95 | 30 | –
12 | O=C(N/N=C/c1cc(C(F)(F)F)cc(C(F)(F)F)c1O)c1ccc(Cl)cc1 [Compound 32] | 26 | 91 | 21 | –
13 | O=C(N/N=C/c1c(Cl)ccc(Cl)c1O)c1ccc(Cl)cc1 [Compound 45] | – | – | 9 | inhibition of growth at 0.00625 µg/mL ([1]; Test Concn. 0.00625 μg/mL): 33%; % Inhn. Plus Copper Observed ([1]; Test Concn. 0.00625 μg/mL): 78%
14 | O=C(N/N=C/c1cccc(Cl)c1O)c1ccc(Cl)cc1 [Compound 52] | – | – | -4 | inhibition of growth at 0.0125 µg/mL ([1]; Test Concn. 0.0125 μg/mL): 8%; % Inhn. Plus Copper Observed ([1]; Test Concn. 0.0125 μg/mL): 90%
15 | O=C(N/N=C/c1c(C(F)(F)F)ccc(Cl)c1O)c1ccc(Cl)cc1 [Compound 56] | – | – | 11 | inhibition of growth at 0.0125 µg/mL ([1]; Test Concn. 0.0125 μg/mL): 28%; % Inhn. Plus Copper Observed ([1]; Test Concn. 0.0125 μg/mL): 75%
16 | Cc1ccccc1C(=O)N/N=C/c1cc(Cl)cc(Cl)c1O [Compound 63] | 37 | 94 | -18 | –
17 | CC(=O)[O-].CC(=O)[O-].O=C(N/N=C/c1cc(Cl)cc(Cl)c1O)c1ccccc1.[Cu+2] [Compound 72] | – | – | – | Complex % Inhn. (C. reinhardtii): 96%
18 | CC(=O)[O-].CC(=O)[O-].O=C(N/N=C/c1cc(Cl)cc(Cl)c1O)c1ccccc1.O=C(N/N=C/c1cc(Cl)cc(Cl)c1O)c1ccccc1.[Cu+2] [Compound 73] | – | – | – | Complex % Inhn. (C. reinhardtii): 96%
19 | O=C(N/N=C/c1cc(Cl)cc(Cl)c1O)c1ccccc1.O=C(N/N=C/c1cc(Cl)cc(Cl)c1O)c1ccccc1.O=S(=O)([O-])[O-].[Cu+2] [Compound 74] | – | – | – | Complex % Inhn. (C. reinhardtii): 96%
20 | O=C(N/N=C/c1cc(Cl)cc(Cl)c1O)c1ccccc1.[Cl-].[Cl-].[Cu+2] [Compound 75] | – | – | – | Complex % Inhn. (C. reinhardtii): 95%
21 | O=C(N/N=C/c1cc(Cl)cc(Cl)c1O)c1ccccc1.O=C(N/N=C/c1cc(Cl)cc(Cl)c1O)c1ccccc1.[Cl-].[Cl-].[Cu+2] [Compound 76] | – | – | – | Complex % Inhn. (C. reinhardtii): 75%
22 | O=C(N/N=C/c1cc(Cl)cc(Cl)c1O)c1ccccc1.O=C(N/N=C/c1cc(Cl)cc(Cl)c1O)c1ccccc1.[Cl-].[Cl-].[Mn+2] [Compound 77] | – | – | – | Complex % Inhn. (C. reinhardtii): −1%
23 | O=C(NN=Cc1cc(Cl)cc(Cl)c1O)c1ccccc1.O=C(NN=Cc1cc(Cl)cc(Cl)c1O)c1ccccc1.[Cl-].[Cl-].[Zn+2] [Compound 78] | – | – | – | Complex % Inhn. (C. reinhardtii): −5%
24 | [Cl][Cu][Cl] [CuCl2, Copper chloride, reference compound] | – | – | – | % Inhn. by copper chloride alone ([1]; CuCl2, 10 μM (so in the source), copper-plus vs copper-minus medium without test compound, across experiments): 7.0 ± 4.6%
